Publication PMC9323797, “4-Substituted Thieno[3,2-d]pyrimidines as Dual-Stage Antiplasmodial Derivatives” (Pharmaceuticals, 2022)
Like-named read-outs stand apart in the source and are kept apart here.

Tested on: P. falciparum K1
Experiment: Blood-stage antiplasmodial evaluation (SYBR Green I fluorescence, 72 h)
Format: cell-based, Plasmodium falciparum
Details: for EC50: read-out: P. falciparum K1 EC50; for IC50: erythrocytic stage P. falciparum K1, read-out: IC50 (activity on Pf. K1)
Procedure: A K1 culture-adapted P. falciparum strain resistant to chloroquine, pyrimethamine, and proguanil was used in an in vitro culture. It was maintained in a continuous culture, as described previously by Trager and Jensen. Cultures were maintained in fresh A+ human erythrocytes at 2.5% hematocrit in a complete medium (RPMI 1640 with 25 mM HEPES, 25 mM NaHCO3, and 10% of A+ human serum) at 37 °C under a reduced O2 atmosphere (gas mixture: 10% O2, 5% CO2, and 85% N2). Parasitemia was maintained daily between 1 and 3%. The P. falciparum drug susceptibility test was carried out by comparing quantities of DNA in treated and control cultures of parasite in human erythrocytes, according to a SYBR Green I fluorescence-based method using a 96-well fluorescence plate reader. Compounds, previously dissolved in DMSO (final concentration less than 0.5% v/v), were incubated in a total assay volume of 200 μL (RPMI, 2% hematocrit and 0.4% parasitemia) for 72 h in a humidified atmosphere (10% O2 and 5% CO2) at 37 °C, in 96-well flat bottom plates. Duplicate assays were performed for each sample. After incubation, plates were frozen at […] for 24 h. Then, the frozen plates were thawed for 1 h at 37 °C. A total of 15 μL of each sample was transferred to 96-well flat-bottom non-sterile black plates (Greiner Bio-One, Kremsmünster, Austria) already containing 15 μL of the SYBR Green I lysis buffer (2X SYBR Green I, 20 mM Tris base pH 7.5, 20 mM EDTA, 0.008% w/v saponin, 0.08% w/v Triton X-100). Negative control treated by solvents (DMSO or H2O) and positive controls (chloroquine) were added to each set of experiments. Plates were incubated for 15 min at 37 °C and then read on a TECAN Infinite F-200 spectrophotometer with excitation and emission wavelengths at 485 and 535 nm, respectively. The concentrations of compounds required to induce a 50% decrease in parasite growth (EC50 K1) were calculated from three independent experiments.

[1] = Plasmodium falciparum, K1, 72 h
[2] = Plasmodium falciparum, K1, 72 h, asexual blood stages, drug-resistant K1 strain, 72 h incubation, mean ± SD of three independent experiments
[3] = asexual blood stages, drug-resistant K1 strain, 72 h incubation, mean ± SD of three independent experiments

Compound	EC50 [2] [µM]	also measured
CCN(CC)CCCC(C)Nc1ccnc2cc(Cl)ccc12 (stereo not shown) [Chloroquine, reference compound]	–	EC50 [1]: 0.8 ± 0.1 µM
COc1nc(NC(C)(C)C)nc2cc(-c3ccc(C)cc3)sc12 [Compound 7a, N-(tert-butyl)-4-methoxy-6-(p-tolyl)thieno[3,2-d]pyrimidin-2-amine]	7.6 ± 0.9	–
CCOc1nc(NC(C)(C)C)nc2cc(-c3ccc(C)cc3)sc12 [Compound 7b, N-(tert-butyl)-4-ethoxy-6-(p-tolyl)thieno[3,2-d]pyrimidin-2-amine]	5.1 ± 1.3	–
Cc1ccc(-c2cc3nc(NC(C)(C)C)nc(Oc4ccccc4)c3s2)cc1 [Compound 8a, N-(tert-butyl)-4-phenoxy-6-(p-tolyl)thieno[3,2-d]pyrimidin-2-amine]	> 10	–
Cc1ccc(Oc2nc(NC(C)(C)C)nc3cc(-c4ccc(C)cc4)sc23)cc1 [Compound 8b, N-(tert-butyl)-6-(p-tolyl)-4-(p-tolyloxy)thieno[3,2-d]pyrimidin-2-amine]	> 10	–
Cc1ccc(-c2cc3nc(NC(C)(C)C)nc(Sc4ccccc4)c3s2)cc1 [Compound 9a, N-(tert-butyl)-6-(p-tolyl)-4-(phenylthio)thieno[3,2-d]pyrimidin-2-amine]	13.8 ± 1.7	–
Cc1ccc(Sc2nc(NC(C)(C)C)nc3cc(-c4ccc(C)cc4)sc23)cc1 [Compound 9b, N-(tert-butyl)-6-(p-tolyl)-4-(p-tolylthio)thieno[3,2-d]pyrimidin-2-amine]	16.4 ± 1.9	–
Cc1ccc(-c2cc3nc(NC(C)(C)C)nc(NC(C)C)c3s2)cc1 [Compound 10e, N^2-(tert-butyl)-N^4-isopropyl-6-(p-tolyl)thieno[3,2-d]pyrimidine-2,4-diamine]	2.4 ± 1	IC50 (Plasmodium falciparum): ~2 µM
Cc1ccc(-c2cc3nc(NC(C)(C)C)nc(Nc4ccccc4)c3s2)cc1 [Compound 10h, N^2-(tert-butyl)-N^4-phenyl-6-(p-tolyl)thieno[3,2-d]pyrimidine-2,4-diamine]	2 ± 0.4	P. falciparum K1 EC50 [3]: some activity was maintained
Cc1ccc(-c2cc3nc(NC(C)(C)C)nc(NN)c3s2)cc1 [Compound 10i, N-(tert-butyl)-4-hydrazino-6-(p-tolyl)thieno[3,2-d]pyrimidin-2-amine]	2.2 ± 0.3	IC50 (Plasmodium falciparum): ~2 µM
Cc1ccc(-c2cc3nc(NC(C)(C)C)nc(N[C@@H](C)C(=O)[O-])c3s2)cc1.O.O.O.[Na+] [Compound 10j, Sodium (S)-2-((2-(Tert-butylamino)-6-(p-tolyl)thieno[3,2-d]pyrimidin-4-yl)amino)-propanoate trihydrate]	–	EC50 [1]: > 12.5 µM; P. falciparum K1 EC50 [3]: loss of activity
Cc1ccc(-c2cc3nc(NC(C)(C)C)nc(-c4ccc(C)cc4)c3s2)cc1 [Compound 11a, N-(tert-butyl)-4,6-di-p-tolylthieno[3,2-d]pyrimidin-2-amine]	> 31	–
Cc1ccc(-c2cc3nc(NC(C)(C)C)nc(-c4cccc(C)c4)c3s2)cc1 [Compound 11b, N-(tert-butyl)-4-(m-tolyl)-6-(p-tolyl)thieno[3,2-d]pyrimidin-2-amine]	> 31	–
Cc1ccc(-c2cc3nc(NC(C)(C)C)nc(-c4ccccc4)c3s2)cc1 [Compound 11c, N-(tert-butyl)-4-phenyl-6-(p-tolyl)thieno[3,2-d]pyrimidin-2-amine]	> 25	–
Cc1ccc(-c2cc3nc(NC(C)(C)C)nc(-c4ccsc4)c3s2)cc1 [Compound 11d, N-(tert-butyl)-4-(thiophen-3-yl)-6-(p-tolyl)thieno[3,2-d]pyrimidin-2-amine]	> 25	–
Cc1ccc(-c2cc3nc(NC(C)(C)C)nc(-c4ccncc4)c3s2)cc1 [Compound 11e, N-(tert-butyl)-4-(pyridin-4-yl)-6-(p-tolyl)thieno[3,2-d]pyrimidin-2-amine]	28.1 ± 7	–
Cc1ccc(-c2cc3nc(NC(C)(C)C)nc(-c4cccnc4)c3s2)cc1 [Compound 11f, N-(tert-butyl)-4-(pyridin-3-yl)-6-(p-tolyl)thieno[3,2-d]pyrimidin-2-amine]	> 10	–
Cc1ccc(-c2cc3nc(NC(C)(C)C)nc(C#Cc4ccccc4)c3s2)cc1 [Compound 12a, N-tert-butyl-6-(4-methylphenyl)-4-(phenylethynyl)thieno[3,2-d]pyrimidin-2-amine]	20.1 ± 4.1	–
Cc1ccc(-c2cc3nc(NC(C)(C)C)nc(C#CC4CC4)c3s2)cc1 [Compound 12b, N-tert-butyl-4-(cyclopropylethynyl)-6-(4-methylphenyl)thieno[3,2-d]pyrimidin-2-amine]	15.7 ± 2.4	–
Cc1ccc(-c2cc3nc(NC(C)(C)C)nc(C#CCCO)c3s2)cc1 [Compound 12c, 4-[2-tert-butylamino-6-(4-methylphenyl)thieno[3,2-d]pyrimidin-4-yl]but-3-yn-1-ol]	14.2 ± 2.8	–
Cc1ccc(-c2cc3nc(NC(C)(C)C)ncc3s2)cc1 [Compound 13, N-(Tert-butyl)-6-(p-tolyl)thieno[3,2-d]pyrimidin-2-amine]	26.1 ± 2.2	P. falciparum K1 EC50 [3]: inactive
N-(tert-butyl)-4-(1-methylhydrazinyl)-6-(p-tolyl)-3,4-dihydrothieno[3,2-d]pyrimidin-2-amine [Compound 10b]	–	EC50 [3]: 2.2 ± 0.3 µM; IC50: ~2 µM
